According to PMC10477886, “Adamantaniline Derivatives Target ATP5B to Inhibit Translation of Hypoxia Inducible Factor‐1α” (Advanced Science, 2023):

What was measured:
[1] = plasma concentration and pharmacokinetics after intraperitoneal administration in ICR mice; type: in vivo
Procedure: (§1) First, we roughly screened the concentrations in the plasma of seven selected compounds (1‐3n, 1‐3au, 1‐4a, 1‐4k, 1‐4l, 1‐4m, and 1‐4p) at indicated times after intraperitoneal administration in the Institute of Cancer Research (ICR) mice at a dose of 50 mg kg^−1 with two mice per compound, the blood at five different times was collected and the plasma concentration was analyzed finally. […] Besides, we examined the toxicity of HI‐104 in ICR mice by administering for 1 week at a dose of 100 mg kg^−1 by intraperitoneal injection.

MHCC97‐L xenograft tumor = assay: MHCC97‐L xenograft model in nude mice (wildtype and ATP5A/ATP5B knock‐out); type: in vivo
From the text: HIF‐1α overexpression is implicated in human hepatocellular carcinoma (HCC).^[ [57] ^] To investigate the biological significance of HI‐104 in the progression of HCC by targeting ATP5A or ATP5B, we performed xenograft models in nude mice with ATP5A or ATP5B stable knock‐out MHCC97‐L cell lines (Figure 6A). The cells were inoculated to 6–8 weeks old nude mice under the armpits, and daily intraperitoneal injection of HI‐104 was started after the tumor volume reached 100 mm^3. Tumor volume and body weight were monitored during the treatment.
MHCC97L wildtype and ATP5A or ATP5B stable knock‐out cells (3 × 10^6) were implanted subcutaneously into the right flanks of 6‐week‐old female BALB/c nude mice. After most of the tumors had reached a threshold size of 100 mm^3, the mice received an intraperitoneal injection of vehicle alone (10% DMSO, 10% Cremophor, and 80% saline, pH 7–8) or HI‐104 over 10 days. The tumor volume was monitored every other day with calipers. After 10 days of treatment or if the mice met humane endpoint criteria, the mice were sacrificed, and tumors were dissected, photographed, and weighed. Tumor tissues were either collected and fixed in 10% neutral‐buffered formalin or snap‐frozen in liquid N2 and stored at −80 °C for subsequent analyses. All animals used in this study were handled in accordance with federal and institutional guidelines under a protocol approved by the Institutional Animal Care and Use Committee at Shanghai Jiao Tong University School of Medicine.

[2] = toxicity in ICR mice, administering for 1 week; type: in vivo; details: 100 mg kg^−1 intraperitoneal for 1 week
Procedure: as §1

[3] = tested on: HIF‐1α transcriptional activity; assay: dual‐luciferase assay (HRE‐Firefly Luciferase / renilla) of HIF‐1α transcriptional activity in HEK293T cells; type: cell-based, human; details: for inhibition at 10 µM / IC50: Homo sapiens, HEK-293T, mean ± s.d. (n = 3); for inhibition at 10 µM: incubation 24 h, read-out: Inhibition rate [%] @ 10 µM; for IC50: HEK293T dual‐luciferase
From the text: To screen HIF‐1α inhibitors in a robust cell‐based assay, we optimized the dual‐luciferase assay with pLenti‐HIF‐1αP2A (P402A and P564A) instead of pLenti‐HIF‐1α in order to ensure the expression of HIF‐1α under normoxia condition. In the cell‐based assay, HEK293T cells were co‐transfected with pLenti‐HIF‐1αP2A, renilla, and hypoxia‐responsive element (HRE)‐Firefly Luciferase (Figure S1, Supporting Information). […] Three compounds were selected as the positive controls including two inhibitors (PX‐478 2HCl and BAY 87‐2243) and an activator (BAY 85‐3934) in the screening assay.
HEK293T cells were stably transfected with reporter plasmids pGMLV‐HRE‐LUC‐puromycin, pMSCV‐renilla‐hygromycin, and pLenti‐HIF‐1αP2A‐neomycin. Stable cell line constructed above, 293‐HIF‐1αP2A‐HRE‐Fluc‐Rluc, were seeded in 384‐well plates and cultured in DMEM with 10% FBS. The following day, the cells were pretreated with indicated chemical compounds from the National Compound Library of the Shanghai Institute of Materia Medica, Chinese Academy of Sciences by Mosquito HTS. The plate was then placed in an incubator chamber and incubated at 37 °C for 24 h. The ratio of firefly/renilla luciferase activity was determined by using the Envision (PerkinElmer).
Stable cell line 293‐HRE‐Fluc‐Rluc expressed luciferase and renilla or HEK293T cells transfected with indicated plasmids (pGL3‐HRE‐luciferase and pSV40‐renilla) were seeded in a 96‐well plate. The cells were co‐incubated with indicated compounds for 24 h and luciferase activities were detected in Microplate Reader (BioTek SYNEGRY H1) using the Dual Luciferase Reporter Assay System Kit (Promega, USA E1910) according to the manufacturer's instruction. The relative Luc activity was normalized by renilla activity. Three independent experiments were performed, and the calculated means and SDs are presented.

F1‐ATP synthase complex = F1‐ATP synthase complex (Sus scrofa, UniProt K7GLT8+P80021); assay: fluorescence polarization binding assay; design: species or system pig
From the text: ATP5A and ATP5B are important components of FOF1–ATP synthase, also known as ATP synthase, which is a protein complex that catalyzes ATP synthesis by utilizing energy from the translocation of protons across biological membranes.^[ [40] ^] FOF1‐ATP synthase consists of two domains: the membrane‐spanning domain, FO, which acts as a proton channel, and the soluble catalytic domain, F1, which synthesizes ATP and is composed of nine subunits(α 3 β 3 γδɛ).^[ [41], [42], [43], [44] ^] […] To verify whether HI‐101 targeted ATP5A and ATP5B, we knocked down the subunits of F1 domains separately by shRNA.
F1‐ATPase at indicated concentrations was incubated with HI‐103 (4 nM), bodipy‐1 was as a negative molecule, conduct the experiment after incubating in 96‐well microplates of black polystyrene for 10 min. The FP results were analyzed with GraphPad Prism 9.0.

HIF‐1α protein level = assay: western blot of HIF‐1α protein level in cells; type: cell-based, human; details: hypoxia
Procedure: Cells were lysed with RIPA lysis (Epizyme, PC101) containing 1% cocktail protease inhibitors (MCE), and protein concentrations were determined by BCA kits (Beyotime, P0012S). Samples were denatured using DS‐PAGE Protein Staining and Loading Buffer (5×) (Beyotime, P0015L) followed by boiling for 10 min at 98 °C then the proteins were fractionated by 10% or 12.5% SDS‐PAGE and transferred to Cellulose Nitrate Membrane Filters (WHATMAN). After blocking in 5% non‐fat milk for 2 h at room temperature, the membrane was incubated overnight with specific antibodies at 4 °C, followed by horseradish peroxidase (HRP)‐linked anti‐mouse or anti‐rabbit secondary antibody (Cell Signaling Technology). Finally, An Immobilon Western Chemiluminescent HRP Substrate Kit (Merck Millipore) was used for protein bands detection. In addition, blots were probed with anti‐β‐actin (Merck, Darmstadt, Germany) antibody as the internal control.

Sequence of F1‐ATP synthase complex (K7GLT8 entry or part of it): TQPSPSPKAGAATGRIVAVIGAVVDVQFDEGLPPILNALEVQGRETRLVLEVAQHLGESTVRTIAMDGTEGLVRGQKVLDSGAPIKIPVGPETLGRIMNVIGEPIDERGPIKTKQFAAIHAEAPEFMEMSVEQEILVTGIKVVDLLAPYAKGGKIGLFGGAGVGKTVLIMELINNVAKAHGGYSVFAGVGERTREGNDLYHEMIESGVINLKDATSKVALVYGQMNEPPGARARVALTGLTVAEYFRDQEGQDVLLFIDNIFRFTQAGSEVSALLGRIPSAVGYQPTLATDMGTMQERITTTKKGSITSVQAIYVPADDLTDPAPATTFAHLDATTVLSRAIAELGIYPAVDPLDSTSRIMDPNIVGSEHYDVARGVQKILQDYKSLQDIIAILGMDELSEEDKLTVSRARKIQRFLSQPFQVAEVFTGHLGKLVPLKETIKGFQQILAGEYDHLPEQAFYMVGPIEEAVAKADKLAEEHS
Sequence of F1‐ATP synthase complex (A0A286ZYL7 entry or part of it, further chain): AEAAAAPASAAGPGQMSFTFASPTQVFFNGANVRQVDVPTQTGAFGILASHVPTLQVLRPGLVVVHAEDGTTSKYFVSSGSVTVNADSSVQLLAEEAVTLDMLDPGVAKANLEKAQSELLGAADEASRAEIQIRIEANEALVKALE
Sequence of F1‐ATP synthase complex (A5GFX4 entry or part of it, further chain): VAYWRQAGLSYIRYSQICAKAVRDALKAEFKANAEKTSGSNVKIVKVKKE
Sequence of F1‐ATP synthase complex (P80021 44-553): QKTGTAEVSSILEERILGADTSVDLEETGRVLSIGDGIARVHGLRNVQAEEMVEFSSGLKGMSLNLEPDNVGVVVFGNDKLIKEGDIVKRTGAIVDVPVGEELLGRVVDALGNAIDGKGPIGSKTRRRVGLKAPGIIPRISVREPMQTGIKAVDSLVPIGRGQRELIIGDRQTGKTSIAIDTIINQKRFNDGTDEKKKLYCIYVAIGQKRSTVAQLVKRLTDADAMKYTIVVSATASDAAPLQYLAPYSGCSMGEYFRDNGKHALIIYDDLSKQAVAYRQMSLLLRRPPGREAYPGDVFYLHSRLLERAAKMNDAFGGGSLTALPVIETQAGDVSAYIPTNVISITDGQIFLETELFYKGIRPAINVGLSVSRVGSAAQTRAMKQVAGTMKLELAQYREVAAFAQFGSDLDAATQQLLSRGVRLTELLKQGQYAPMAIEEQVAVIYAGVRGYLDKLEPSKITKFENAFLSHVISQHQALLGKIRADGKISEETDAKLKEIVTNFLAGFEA

Row | Compound | concentration in the plasma (rough screen) ([1]; intraperitoneal 50 mg kg^−1, two mice per compound, five times) | AUC ([1]; mouse, ip, intraperitoneal, plasma, read-out: area under the curve (AUC0‐24 h)) | Cmax ([1]; mouse, ip, intraperitoneal, plasma, read-out: maximum concentration (Cmax)) | half-life ([1]; mouse, plasma, ip, intraperitoneal) | tumor growth (MHCC97‐L xenograft tumor; ATP5B KO MHCC97‐L xenograft models) | tumor volume and weight (MHCC97‐L xenograft tumor; wildtype MHCC97‐L xenograft, daily intraperitoneal injection) | body weight (MHCC97‐L xenograft tumor; wildtype MHCC97‐L xenograft, nude mice) | toxicity (body weight and mental status) [2] | inhibition at 10 µM ([3]; HEK293T) | IC50 [3] | Kd (F1‐ATP synthase complex) | HIF‐1α protein level (HIF‐1α protein level) | HIF‐1α transcriptional activity (relative luciferase activity), in words ([3]; HEK293T, hypoxia)
1 | C[N+](C)(C)CCCC(=O)Nc1ccc(C(=O)Nc2ccc(C34CC5CC(CC(C5)C3)C4)cc2)cc1 [1‐3au, 4‐((4‐((4‐((3r,5r,7r)‐Adamantan‐1‐yl)Phenyl)Carbamoyl)Phenyl)Amino)‐N,N,N‐Trimethyl‐4‐Oxobutan‐1‐Aminium] | high concentration in the plasma | 861 µg·h/mL | 91.7 µg/mL | 340 min | almost had no effect | reduced the tumor volume and weight | tolerant weight loss | not overtly toxic | 89.9 ± 1.6% | 1300 ± 300 nM | – | – | –
2 | CC1=CC(C)=[N+]2C1=C(CCCC(=O)Nc1ccc(C(=O)Nc3ccc(C45CC6CC(CC(C6)C4)C5)cc3)cc1)c1c(C)cc(C)n1[B-]2(F)F [1‐3z, N‐(4‐((3r,5r,7r)‐Adamantan‐1‐yl)Phenyl)−4‐(4‐(5,5‐Difluoro‐1,3,7,9‐Tetramethyl‐5H‐4l4,5l4‐Dipyrrolo[1,2‐c:2′,1′‐f][1,3,2]Diazaborinin‐10‐yl)Butanamido)Benzamide] | – | – | – | – | – | – | – | – | 80.3 ± 1.2% | 2100 ± 500 nM | 2.6 nM | – | –
3 | CC[C@H]1/C=C/C=C/C[C@@H](C)[C@H](O)[C@@](C)(O)C(=O)[C@@H](C)[C@H](O)[C@@H](C)C(=O)[C@@H](C)[C@H](O)[C@@H](C)/C=C/C(=O)O[C@@H]2[C@H](C)[C@H](CC1)O[C@]1(CC[C@H](C)[C@H](C[C@@H](C)O)O1)[C@H]2C [Oligomycin, reference compound] | – | – | – | – | – | – | – | – | – | – | – | decreased HIF‐1α transcriptional activity and protein level in a dose‐dependent manner | decreased HIF‐1α transcriptional activity and protein level in a dose‐dependent manner
